# Activity calls are given as the source filed them.
# What was measured:
# [1] = target: T1, Coagulation factor XII (Homo sapiens, UniProt P00748); type: functional;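 also: activated factor XIIa alpha cleaving a fluorogenic AMC peptide substrate; inhibitor potency from loss of enzyme activity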
# T1 sequence (P00748 whole entry): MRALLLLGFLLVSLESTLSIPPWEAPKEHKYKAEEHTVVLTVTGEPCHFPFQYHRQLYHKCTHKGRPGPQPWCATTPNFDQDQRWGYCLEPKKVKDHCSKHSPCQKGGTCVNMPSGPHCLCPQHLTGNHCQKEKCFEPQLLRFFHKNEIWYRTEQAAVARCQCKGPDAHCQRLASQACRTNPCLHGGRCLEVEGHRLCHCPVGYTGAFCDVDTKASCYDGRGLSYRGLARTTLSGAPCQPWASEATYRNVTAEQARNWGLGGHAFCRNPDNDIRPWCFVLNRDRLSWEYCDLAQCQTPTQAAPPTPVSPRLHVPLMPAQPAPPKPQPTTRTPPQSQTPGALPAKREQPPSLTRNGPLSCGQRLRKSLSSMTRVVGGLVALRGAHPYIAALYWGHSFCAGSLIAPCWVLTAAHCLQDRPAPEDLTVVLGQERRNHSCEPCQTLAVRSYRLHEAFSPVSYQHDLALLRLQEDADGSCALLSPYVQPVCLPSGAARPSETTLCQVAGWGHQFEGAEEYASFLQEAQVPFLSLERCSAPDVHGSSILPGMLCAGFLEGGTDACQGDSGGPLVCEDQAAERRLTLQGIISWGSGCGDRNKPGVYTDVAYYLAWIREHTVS
# [2] = target: Eukaryotic translation initiation factor 4E (Mus musculus, UniProt P63073); assay: blockers of eIF4G binding by eIF4E – biochemical, TR-FRET, dose response (AID 855); type: functional;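 also: potency for disrupting eIF4E binding to eIF4GI seen as loss of FRET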
# Sequence of Eukaryotic translation initiation factor 4E (P63073 whole entry): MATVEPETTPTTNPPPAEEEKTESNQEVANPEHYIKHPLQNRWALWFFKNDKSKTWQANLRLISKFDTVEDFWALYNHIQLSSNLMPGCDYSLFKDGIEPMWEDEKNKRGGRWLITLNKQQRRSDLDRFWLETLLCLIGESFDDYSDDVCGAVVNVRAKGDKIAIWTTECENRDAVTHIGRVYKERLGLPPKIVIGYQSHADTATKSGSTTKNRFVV
# [3] = target: T2, Replicative DNA helicase DnaB (Mycobacterium tuberculosis, UniProt P9WMR3); assay: DnaB intein splicing inhibitors, dose response, biochemical, cell-free fluorescence (AID 449749); type: functional
# T2 sequence (P9WMR3 whole entry): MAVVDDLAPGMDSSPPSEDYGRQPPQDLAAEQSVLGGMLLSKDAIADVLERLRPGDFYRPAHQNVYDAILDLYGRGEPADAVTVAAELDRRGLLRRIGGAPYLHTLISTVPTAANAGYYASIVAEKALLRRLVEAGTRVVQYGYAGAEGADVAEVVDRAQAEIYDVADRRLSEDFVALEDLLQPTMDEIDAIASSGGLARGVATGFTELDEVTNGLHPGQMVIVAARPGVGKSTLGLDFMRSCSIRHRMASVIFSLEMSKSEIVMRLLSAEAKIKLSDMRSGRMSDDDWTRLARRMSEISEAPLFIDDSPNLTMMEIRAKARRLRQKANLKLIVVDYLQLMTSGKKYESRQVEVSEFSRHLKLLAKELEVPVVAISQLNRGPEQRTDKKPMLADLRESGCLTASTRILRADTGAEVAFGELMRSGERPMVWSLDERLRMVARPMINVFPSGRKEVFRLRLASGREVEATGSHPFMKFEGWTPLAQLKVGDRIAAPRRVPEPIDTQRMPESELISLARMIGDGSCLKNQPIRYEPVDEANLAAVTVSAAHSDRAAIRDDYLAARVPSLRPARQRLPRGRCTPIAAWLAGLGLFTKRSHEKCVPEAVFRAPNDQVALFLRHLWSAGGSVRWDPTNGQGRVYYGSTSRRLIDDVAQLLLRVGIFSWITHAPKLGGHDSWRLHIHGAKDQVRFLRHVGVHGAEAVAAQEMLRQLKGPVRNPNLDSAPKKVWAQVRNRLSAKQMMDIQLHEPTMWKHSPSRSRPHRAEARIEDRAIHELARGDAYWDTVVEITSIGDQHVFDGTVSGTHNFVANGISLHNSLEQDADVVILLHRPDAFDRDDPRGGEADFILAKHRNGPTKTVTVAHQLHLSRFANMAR
# [4] = target: T3, Calpain-2 catalytic subunit (Sus scrofa, UniProt P43367); assay: m-calpain protease blockers, concentration series – biochemical, fluorogenic peptide substrate, dose response (AID 1420); type: functional
# T3 sequence (P43367 whole entry): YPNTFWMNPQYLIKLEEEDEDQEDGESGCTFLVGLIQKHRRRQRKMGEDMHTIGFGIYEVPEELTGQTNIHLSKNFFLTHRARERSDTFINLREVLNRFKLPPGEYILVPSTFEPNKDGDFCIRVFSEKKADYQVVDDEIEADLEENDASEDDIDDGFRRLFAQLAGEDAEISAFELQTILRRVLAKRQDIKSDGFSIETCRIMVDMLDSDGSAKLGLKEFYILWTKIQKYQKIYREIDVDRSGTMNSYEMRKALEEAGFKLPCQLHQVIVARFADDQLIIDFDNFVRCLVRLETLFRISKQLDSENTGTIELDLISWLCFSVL
# [5] = target: T4, Protein RecA (Mycobacterium tuberculosis, UniProt P9WHJ3); assay: Fluorescence Cell-Free Homogeneous Dose Retest to Identify Inhibitors of RecA-Intein Splicing Activity. [Related pubchem assays (depositor defined):AID2097, AID2223, AID489010, AID492950]; type: functional
# T4 sequence (P9WHJ3 whole entry): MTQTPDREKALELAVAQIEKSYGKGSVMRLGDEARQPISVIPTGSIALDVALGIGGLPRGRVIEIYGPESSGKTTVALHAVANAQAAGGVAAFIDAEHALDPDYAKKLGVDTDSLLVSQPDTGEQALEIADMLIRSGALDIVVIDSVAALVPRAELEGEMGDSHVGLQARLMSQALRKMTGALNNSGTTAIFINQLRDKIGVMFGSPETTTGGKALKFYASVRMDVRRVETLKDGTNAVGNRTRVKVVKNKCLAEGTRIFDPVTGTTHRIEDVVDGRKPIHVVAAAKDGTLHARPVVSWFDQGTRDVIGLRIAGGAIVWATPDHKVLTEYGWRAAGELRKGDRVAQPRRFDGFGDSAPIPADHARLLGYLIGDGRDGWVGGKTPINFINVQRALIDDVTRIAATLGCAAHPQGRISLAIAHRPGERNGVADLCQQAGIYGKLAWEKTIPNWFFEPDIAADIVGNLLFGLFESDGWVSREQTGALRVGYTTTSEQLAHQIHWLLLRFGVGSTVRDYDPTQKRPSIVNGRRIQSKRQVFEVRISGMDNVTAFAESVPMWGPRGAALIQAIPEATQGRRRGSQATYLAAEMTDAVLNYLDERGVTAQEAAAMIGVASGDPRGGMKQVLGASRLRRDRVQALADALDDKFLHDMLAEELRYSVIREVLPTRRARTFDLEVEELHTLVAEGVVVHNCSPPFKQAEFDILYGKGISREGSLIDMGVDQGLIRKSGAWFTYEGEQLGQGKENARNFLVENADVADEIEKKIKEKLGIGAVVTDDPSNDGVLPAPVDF
# [6] = target: Cytochrome P450 2D6 (Homo sapiens, UniProt P10635);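 also: CYP2D6 member of a cytochrome P450 panel assay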
# Sequence of Cytochrome P450 2D6 (P10635 whole entry): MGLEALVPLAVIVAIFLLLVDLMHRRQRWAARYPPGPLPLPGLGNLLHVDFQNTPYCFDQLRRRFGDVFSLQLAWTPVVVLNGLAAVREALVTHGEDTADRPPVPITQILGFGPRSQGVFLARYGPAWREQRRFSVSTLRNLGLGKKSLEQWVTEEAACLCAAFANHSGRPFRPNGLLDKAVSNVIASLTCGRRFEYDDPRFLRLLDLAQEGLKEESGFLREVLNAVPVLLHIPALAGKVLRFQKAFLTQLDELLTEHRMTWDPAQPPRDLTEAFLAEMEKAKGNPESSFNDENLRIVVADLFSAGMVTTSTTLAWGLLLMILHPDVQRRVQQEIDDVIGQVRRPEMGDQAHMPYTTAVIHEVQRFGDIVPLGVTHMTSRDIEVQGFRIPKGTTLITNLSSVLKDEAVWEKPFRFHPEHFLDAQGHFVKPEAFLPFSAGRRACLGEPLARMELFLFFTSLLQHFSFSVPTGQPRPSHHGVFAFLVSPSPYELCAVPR
# [7] = target: Cytochrome P450 2C9 (Homo sapiens, UniProt P11712)
# Sequence of Cytochrome P450 2C9 (P11712 whole entry): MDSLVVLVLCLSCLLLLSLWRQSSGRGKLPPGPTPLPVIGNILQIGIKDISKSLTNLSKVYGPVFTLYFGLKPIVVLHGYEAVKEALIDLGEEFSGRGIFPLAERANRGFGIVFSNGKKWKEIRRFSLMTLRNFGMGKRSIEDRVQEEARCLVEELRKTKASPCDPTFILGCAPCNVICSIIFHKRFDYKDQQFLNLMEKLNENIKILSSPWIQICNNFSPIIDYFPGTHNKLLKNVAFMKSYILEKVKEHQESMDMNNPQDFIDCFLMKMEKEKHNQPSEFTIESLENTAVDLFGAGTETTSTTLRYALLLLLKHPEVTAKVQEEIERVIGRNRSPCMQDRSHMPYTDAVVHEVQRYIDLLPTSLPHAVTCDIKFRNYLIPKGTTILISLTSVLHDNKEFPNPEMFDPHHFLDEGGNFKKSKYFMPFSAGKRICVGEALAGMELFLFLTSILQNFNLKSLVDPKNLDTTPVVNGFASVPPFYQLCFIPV
# [8] = blockers of CRF-binding protein–CRF-R2 complex – cell-based, uHTS hits, 384-well, dose response (AID 651639); type: functional, Homo sapiens; conditions: read-out: IC50_Mean
# [9] = target: T5, Corticotropin-releasing factor receptor 2/Corticotropin-releasing factor-binding protein (Homo sapiens, UniProt P24387+Q13324); assay: activators of CRF receptor 2 with binding protein – uHTS hits, confirmation (AID 602473); type: functional; conditions: read-out: EC50_Mean
# T5 sequence (Q13324 whole entry): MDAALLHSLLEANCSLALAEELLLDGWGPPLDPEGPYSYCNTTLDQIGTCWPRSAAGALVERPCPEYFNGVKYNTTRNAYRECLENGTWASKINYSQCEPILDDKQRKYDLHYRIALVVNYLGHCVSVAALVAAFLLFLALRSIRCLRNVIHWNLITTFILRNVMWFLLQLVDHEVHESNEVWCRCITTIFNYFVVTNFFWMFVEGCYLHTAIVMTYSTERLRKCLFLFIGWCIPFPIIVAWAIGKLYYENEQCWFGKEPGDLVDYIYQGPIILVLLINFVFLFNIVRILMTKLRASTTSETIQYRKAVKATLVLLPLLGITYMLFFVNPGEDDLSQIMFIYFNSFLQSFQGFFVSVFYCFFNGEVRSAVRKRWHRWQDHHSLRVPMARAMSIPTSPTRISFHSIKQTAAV
# T5 sequence (P24387 whole entry): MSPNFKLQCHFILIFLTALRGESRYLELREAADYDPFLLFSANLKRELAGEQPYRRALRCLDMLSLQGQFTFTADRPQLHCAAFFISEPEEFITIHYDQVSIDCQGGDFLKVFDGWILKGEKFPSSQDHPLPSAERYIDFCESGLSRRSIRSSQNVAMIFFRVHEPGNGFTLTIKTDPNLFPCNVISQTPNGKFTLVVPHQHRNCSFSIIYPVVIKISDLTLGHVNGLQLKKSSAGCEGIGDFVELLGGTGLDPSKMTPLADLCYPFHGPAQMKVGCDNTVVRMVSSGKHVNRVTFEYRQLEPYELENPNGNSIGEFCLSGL
# [10] = target: T5, Corticotropin-releasing factor receptor 2/Corticotropin-releasing factor-binding protein; assay: Dose Response confirmation of uHTS hits for small molecule antagonists of the CRF-binding protein and CRF-R2 receptor complex.; type: functional; conditions: read-out: IC50_Mean
# [11] = system: INS1; assay: INS-1E survival protection against cytokine death – cell-based, luminescence, retest, dose response (AID 449756); type: functional; conditions: Rattus norvegicus;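 also: cell death triggered by IL-1 beta plus TNF-alpha plus IFN-gamma mixture; protective hits raise ATP signal compared with cytokine alone wells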
# [12] = target: T6, Rac GTPase-activating protein 1 (Homo sapiens, UniProt Q9H0H5); assay: blockers of MgcRacGAP-driven Rac1 GTP hydrolysis – biochemical, ADP Hunter fluorescence, primary and confirmatory, confirmation (AID 624330); type: functional
# T6 sequence (Q9H0H5 whole entry): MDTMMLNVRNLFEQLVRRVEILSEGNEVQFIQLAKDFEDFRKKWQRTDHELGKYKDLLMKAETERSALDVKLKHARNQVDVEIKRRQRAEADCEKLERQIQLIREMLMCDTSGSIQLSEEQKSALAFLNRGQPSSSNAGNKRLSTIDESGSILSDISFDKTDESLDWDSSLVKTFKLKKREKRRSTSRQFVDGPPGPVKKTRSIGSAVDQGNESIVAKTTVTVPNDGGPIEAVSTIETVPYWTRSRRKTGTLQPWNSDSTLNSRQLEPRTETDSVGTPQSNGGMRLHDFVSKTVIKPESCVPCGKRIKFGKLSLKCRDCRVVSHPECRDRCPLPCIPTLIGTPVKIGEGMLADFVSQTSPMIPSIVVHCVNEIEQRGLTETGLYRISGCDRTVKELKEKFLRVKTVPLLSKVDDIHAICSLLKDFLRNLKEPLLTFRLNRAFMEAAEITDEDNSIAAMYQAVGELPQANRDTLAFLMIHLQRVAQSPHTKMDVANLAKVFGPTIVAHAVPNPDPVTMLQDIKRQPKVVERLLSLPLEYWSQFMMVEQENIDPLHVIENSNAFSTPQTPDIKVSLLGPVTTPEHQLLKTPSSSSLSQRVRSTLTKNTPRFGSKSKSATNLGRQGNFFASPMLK
# [13] = viability of uninfected HEp-2 cells – cell-based, HTS, cytotoxicity control for RSV inhibitor project, dose response (AID 2410); type: functional; conditions: human respiratory syncytial virus
# [14] = target: T7, Heat shock factor protein 1 (Mus musculus, UniProt P38532); assay: decrease of HSF1-responsive luciferase luminescence – cell-based, NIH3T3, dose retest, confirmation (AID 2382); type: functional;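 also: NIH3T3 fibroblasts with HSF1-driven luciferase reporter stressed by proteasome inhibitor MG132; luminescence from HSF1-driven luciferase expression after 8 hours of MG132 stress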
# T7 sequence (P38532 whole entry): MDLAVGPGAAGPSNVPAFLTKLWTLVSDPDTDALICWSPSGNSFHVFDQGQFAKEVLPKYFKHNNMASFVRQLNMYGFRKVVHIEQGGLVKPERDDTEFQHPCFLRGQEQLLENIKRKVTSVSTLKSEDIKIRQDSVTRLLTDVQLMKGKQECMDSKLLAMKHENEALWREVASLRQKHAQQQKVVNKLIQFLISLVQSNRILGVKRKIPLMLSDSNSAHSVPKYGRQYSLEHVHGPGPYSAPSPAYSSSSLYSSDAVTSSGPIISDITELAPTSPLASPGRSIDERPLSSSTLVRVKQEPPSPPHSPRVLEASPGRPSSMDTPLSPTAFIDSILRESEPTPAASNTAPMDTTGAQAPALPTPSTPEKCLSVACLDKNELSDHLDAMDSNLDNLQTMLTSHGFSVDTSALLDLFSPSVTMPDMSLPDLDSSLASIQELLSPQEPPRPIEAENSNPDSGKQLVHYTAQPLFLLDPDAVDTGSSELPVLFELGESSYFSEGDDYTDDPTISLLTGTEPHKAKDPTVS
# [15] = P. falciparum Dd2 growth inhibitors, dose response, SYBR Green, cherry-picked samples (AID 1159567); type: functional, cell-based
structure (smiles),measurement,setting,value
Cc1ccc(-c2nn(-c3ccccc3)cc2/C=N/NS(=O)(=O)c2ccccc2)cc1,IC50,[1],> 50 µM (inactive)
C=CCSc1nc(C)c(CC=C)c(O)n1,IC50,[1],> 50 µM (inactive)
CCOC(=O)Cn1c(=O)oc2cc(S(=O)(=O)NCc3cccs3)ccc21,IC50,[2],> 64 µM (inactive)
CCOc1ccccc1Nc1nnc(Cc2ccccc2Cl)c(O)n1,AC50,[3],> 380 µM (inactive)
same,IC50,[4],> 50 µM (not active)
same,EC50,[5],21 µM (active)
CCCCc1nc(O)c(C#N)c2c1CCCC2,AC50,[6],35.5 µM (inconclusive)
same,AC50,[7],251 nM (inconclusive)
same,IC50,[1],> 50 µM (inactive)
Cc1ccc(S(=O)(=O)N(Cc2ccccc2)c2ccccc2C(=O)NCc2ccco2)cc1,AC50,[6],15.8 µM (inconclusive)
same,IC50,[8],6.81 µM (active)
same,IC50,[1],> 50 µM (inactive)
same,EC50,[9],> 53 µM (inactive)
same,IC50,[10],< 368 nM (active)
COc1cccc(Cn2c(NCc3ccco3)nc3c2c(=O)n(C)c(=O)n3C)c1,AC50,[11],3.85 µM (active)
same,IC50,[1],> 50 µM (inactive)
C/C(=N\NC(=O)CCn1nnc2ccccc21)c1cccs1,IC50,[1],> 50 µM (inactive)
CCOC(=O)c1c(N)sc2c(O)c(Br)ccc12,IC50,[12],58.6 µM (active)
same,IC50,[2],> 64 µM (inactive)
same,CC50,[13],47 µM (active)
same,EC50,[14],> 195 µM (not active)
CCN(CC)S(=O)(=O)c1ccc2oc(C(=O)NCc3ccc(C)cc3)c(C)c2c1,IC50,[4],26.3 µM (not active)
CSc1nsc(SCC(=O)N2CCc3ccccc32)n1,IC50,[2],> 64 µM (inactive)
Cc1ccccc1S(=O)(=O)N1[C@H](C#N)[C@@H](c2ccc(C#CC3CC3)cc2)[C@@H]1CO,AC50,[15],4.69 µM (active)
Cc1c(=O)n(OCc2ccccc2F)c2ccccc2[n+]1[O-],IC50,[4],25.6 µM (not active)
COC(=O)CC(NS(=O)(=O)c1cccs1)c1cccc2ccccc12 (configuration not stated),IC50,[4],> 50 µM (not active)
Cc1cc(C)cc(NC(=O)c2ccccc2CC[N+](=O)[O-])c1,IC50,[2],> 64 µM (inactive)
